Measurements taken from ChEMBL document CHEMBL5034037, “Synthesis, Characterization, and Preclinical Evaluation of a Small-Molecule Prostate-Specific Membrane Antigen-Targeted Monomethyl Auristatin E Conjugate” (J Med Chem, 2021).
pIC50: −log10 of the molar value. *1 amine or outer side, *2 acyl side, *3 side chain or, on linkers, in order; H or OH if unused. Where a SMILES comes first, the peptide text is derived from it. [ ]: non-standard residue; d: D form. The star is where a group is joined. GluureaLys(ε-3-ClBenzyl) = O=C(O)CC[C@H](NC(=O)N[C@@H](CCCCN(Cc1cccc(Cl)c1)*)C(=O)O)C(=O)O; Dolaproine = CO[C@@H]([C@@H]1CCCN1)[C@@H](C)C(=O)O; Dil = CC[C@H](C)[C@H](NC)[C@@H](CC(=O)O)OC; X1 = O=C(CCCc1cn(CCCN[*:1])nn1)[*:2]; PABC = O=C(OCc1ccc(N[*:1])cc1)[*:2]; X2 = C[C@@H](N*)[C@@H](O)c1ccccc1; Cit = NC(=O)NCCC[C@H](N)C(=O)O; Suc = O=C(CCC(=O)[*:2])[*:1]; NMeV = CN[C@H](C(=O)O)C(C)C; Ahx = NCCCCCC(=O)O

How the values were obtained:
[1] = Toxicity in rat assessed as morphological changes in brain gyrus at 150 to 225 microg/kg, iv; type: tissue-based; conditions: in vivo, dose 150-225 µg/kg
Salmonella typhimurium [2] = experiment: Mutagenecity in Salmonella typhimurium TA100 in presence of metabolic activation system at 1 ug/ml by Ames test; type: toxicity, organism-based; conditions: salmonella enterica subsp. enterica serovar typhimurium; dose 1 µg/ml
[3] = Volume of distribution in rabbit at 0.81 mg/kg, iv; type: ADME, organism-based, Oryctolagus cuniculus; conditions: in vivo
[4] = Toxicity in rabbit assessed as morphological changes in cerebrum at 81 to 122 microg/kg, iv; type: tissue-based, Oryctolagus cuniculus; conditions: in vivo, dose 81-122 µg/kg
[5] = Toxicity in rabbit assessed as pathological change in leydig cells in testes at 81 to 122 microg/kg, iv; type: cell-based, Oryctolagus cuniculus; conditions: in vivo, dose 81-122 µg/kg
Salmonella typhimurium [6] = experiment: Mutagenecity in Salmonella typhimurium TA97 without metabolic activation system at 10000 ug/ml by Ames test; type: toxicity, organism-based; conditions: salmonella enterica subsp. enterica serovar typhimurium; dose 10000 µg/ml
Cytochrome P450 3A4 = Cytochrome P450 3A4 (Homo sapiens, UniProt P08684); experiment: Inhibition of CYP3A4 in human liver microsome using midazolam as substrate; type: ADME, microsomes
Chain of Cytochrome P450 3A4 (P08684 whole entry): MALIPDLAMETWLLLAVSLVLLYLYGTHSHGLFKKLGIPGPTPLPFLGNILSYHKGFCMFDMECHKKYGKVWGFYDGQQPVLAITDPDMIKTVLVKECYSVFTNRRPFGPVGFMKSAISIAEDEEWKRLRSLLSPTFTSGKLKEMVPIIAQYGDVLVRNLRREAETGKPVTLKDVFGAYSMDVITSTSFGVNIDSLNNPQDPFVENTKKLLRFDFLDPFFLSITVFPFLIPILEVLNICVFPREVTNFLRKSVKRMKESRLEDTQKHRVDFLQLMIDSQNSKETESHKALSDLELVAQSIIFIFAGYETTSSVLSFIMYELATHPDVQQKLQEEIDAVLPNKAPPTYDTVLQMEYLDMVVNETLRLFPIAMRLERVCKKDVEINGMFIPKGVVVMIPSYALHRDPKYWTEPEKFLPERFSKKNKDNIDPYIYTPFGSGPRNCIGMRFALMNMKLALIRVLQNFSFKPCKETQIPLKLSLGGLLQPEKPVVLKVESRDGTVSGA

[7] = Toxicity in rabbit assessed as morphological changes in urinary bladder at 81 to 122 microg/kg, iv; set-up: species or system Oryctolagus cuniculus; conditions: in vivo, dose 81-122 µg/kg
Cytochrome P450 2C19 = Cytochrome P450 2C19 (Homo sapiens, UniProt P33261); experiment: Drug metabolism assessed as human liver microsome CYP2C19-mediatd metabolism; type: ADME; conditions: microsomes
Chain of Cytochrome P450 2C19 (P33261 whole entry): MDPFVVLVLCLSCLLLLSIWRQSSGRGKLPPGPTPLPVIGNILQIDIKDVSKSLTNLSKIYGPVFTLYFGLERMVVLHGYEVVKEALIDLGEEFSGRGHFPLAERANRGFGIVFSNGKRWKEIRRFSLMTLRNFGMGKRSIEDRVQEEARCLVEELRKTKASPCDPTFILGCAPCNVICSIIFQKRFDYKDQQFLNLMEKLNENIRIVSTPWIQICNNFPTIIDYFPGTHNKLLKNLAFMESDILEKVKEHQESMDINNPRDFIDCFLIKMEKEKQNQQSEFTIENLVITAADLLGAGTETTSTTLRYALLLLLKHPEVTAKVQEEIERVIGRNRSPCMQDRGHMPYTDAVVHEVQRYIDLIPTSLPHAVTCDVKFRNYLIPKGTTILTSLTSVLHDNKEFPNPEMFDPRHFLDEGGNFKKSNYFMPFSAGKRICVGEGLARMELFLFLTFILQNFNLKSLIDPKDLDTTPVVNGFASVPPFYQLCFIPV

[8] = Toxicity in rabbit assessed as traumatic vein injury at 81 to 122 microg/kg, iv; type: tissue-based, Oryctolagus cuniculus; conditions: in vivo, dose 81-122 µg/kg
[9] = Chronic toxicity in rabbit assessed as decrease in the blood lymphocyte count at […], iv administered once every 3 weeks for 3 months; type: organism-based, Oryctolagus cuniculus; conditions: in vivo, 504 h, dose lower 81 mg/kg
[10] = Toxicity in rat assessed as morphological changes in thymus at 150 to 225 microg/kg, iv; type: tissue-based; conditions: in vivo, dose 150-225 µg/kg
Salmonella typhimurium [11] = experiment: Mutagenecity in Salmonella typhimurium TA97 without metabolic activation system at 1 ug/ml by Ames test; type: toxicity, organism-based; conditions: salmonella enterica subsp. enterica serovar typhimurium; dose 1 µg/ml
[12] = Toxicity in rat assessed as morphological changes in heart muscle at 150 to 225 microg/kg, iv; type: tissue-based; conditions: in vivo, dose 150-225 µg/kg
[13] = Chronic toxicity in rat assessed as reduced volume of urine at […], iv administered once every 3 weeks for 3 months; type: organism-based; conditions: in vivo, 504 h, dose lower 150 mg/kg
Salmonella typhimurium [14] = experiment: Mutagenecity in Salmonella typhimurium TA97 without metabolic activation system at 10 ug/ml by Ames test; type: toxicity, organism-based; conditions: salmonella enterica subsp. enterica serovar typhimurium; dose 10 µg/ml
[15] = Toxicity in rat assessed as morphological changes in mucosa of thyroid gland at 150 to 225 microg/kg, iv; type: tissue-based; conditions: in vivo, dose 150-225 µg/kg
[16] = Toxicity in rabbit assessed as morphological changes in kidney at 81 to 122 microg/kg, iv; type: tissue-based, Oryctolagus cuniculus; conditions: in vivo, dose 81-122 µg/kg
[17] = Toxicity in rabbit morphological change in tongue at 81 to 122 microg/kg, iv; type: tissue-based, Oryctolagus cuniculus; conditions: in vivo, dose 81-122 µg/kg
[18] = Toxicity in rabbit assessed as change in body weight at 0.3 mg/kg, iv measured after 20 days; type: organism-based, Oryctolagus cuniculus; conditions: in vivo, 480 h, time 20 day
[19] = Toxicity in rat assessed as morphological changes in aortic intima at 150 to 225 microg/kg, iv; conditions: in vivo, dose 150-225 µg/kg
Salmonella typhimurium [20] = experiment: Mutagenecity in Salmonella typhimurium TA98 without metabolic activation system at 1000 ug/ml by Ames test; type: toxicity, organism-based; conditions: salmonella enterica subsp. enterica serovar typhimurium; dose 1000 µg/ml
[21] = Toxicity in rabbit assessed as histological change in spermatagonia in seminiferous tubule in testes at 81 to 122 microg/kg, iv; set-up: species or system Oryctolagus cuniculus; conditions: in vivo, dose 81-122 µg/kg
[22] = Toxicity in rabbit assessed as morphological changes in bronchi at 81 to 122 microg/kg, iv; set-up: species or system Oryctolagus cuniculus; conditions: in vivo, dose 81-122 µg/kg
[23] = Toxicity in rabbit assessed as morphological changes in lungs at 81 to 122 microg/kg, iv; set-up: species or system Oryctolagus cuniculus; conditions: in vivo, dose 81-122 µg/kg
[24] = Chronic toxicity in rat assessed as diarrhea at 10 microg/kg, iv; conditions: in vivo, 0.01 mg/kg, dose 10 µg/kg
[25] = Stability of compound at pH 5.6 assessed as recombinant cathepsin B mediated hydrolysis by measuring MMAE release by HPLC-MS analysis; type: physicochemical; conditions: buffer
Salmonella typhimurium [26] = experiment: Mutagenecity in Salmonella typhimurium TA100 without metabolic activation system at 1000 ug/ml by Ames test; type: toxicity, organism-based; conditions: salmonella enterica subsp. enterica serovar typhimurium; dose 1000 µg/ml
[27] = Stability of the compound in mouse liver microsome assessed as half life; type: ADME; conditions: liver microsomes
CWR22R = experiment: Cytotoxicity against human 22Rv1 cells expressing PMSA measured using MTT assay; type: functional
[28] = Stability of compound in pH 5.5 assessed as hydrolysis measured within 96 hrs; type: physicochemical; conditions: buffer, pH 5.5, 96 h
[29] = Toxicity in rat assessed as morphological changes in abdominal cavity at 150 to 225 microg/kg, iv; conditions: in vivo, dose 150-225 µg/kg
[30] = Half life in rabbit at 0.81 mg/kg, iv; type: ADME, organism-based, Oryctolagus cuniculus; conditions: in vivo
[31] = Toxicity in rat assessed as morphological changes in tongue at 150 to 225 microg/kg, iv; type: tissue-based; conditions: in vivo, dose 150-225 µg/kg
[32] = Toxicity in rabbit assessed as morphological changes in peritoneum at 81 to 122 microg/kg, iv; type: tissue-based, Oryctolagus cuniculus; conditions: in vivo, dose 81-122 µg/kg
Salmonella typhimurium [33] = experiment: Mutagenecity in Salmonella typhimurium TA98 in presence of metabolic activation system at 1 ug/ml by Ames test; type: toxicity, organism-based; conditions: salmonella enterica subsp. enterica serovar typhimurium; dose 1 µg/ml
[34] = AUC (0 to t) in rabbit at 0.81 mg/kg, iv; type: ADME, organism-based, Oryctolagus cuniculus; set-up: dose 0.81 mg/kg; conditions: in vivo
[35] = Toxicity in rat assessed as morphological changes in pancreas at 150 to 225 microg/kg, iv; type: tissue-based; conditions: in vivo, dose 150-225 µg/kg
[36] = Toxicity in rat assessed as morphological changes in lungs at 150 to 225 microg/kg, iv; conditions: in vivo, dose 150-225 µg/kg
Cytochrome P450 1A2 = biological target: T1, Cytochrome P450 1A2 (Homo sapiens, UniProt P05177); experiment: Drug metabolism assessed as human liver microsome CYP1A2-mediatd metabolism; type: ADME; conditions: microsomes
T1 sequence (P05177 whole entry): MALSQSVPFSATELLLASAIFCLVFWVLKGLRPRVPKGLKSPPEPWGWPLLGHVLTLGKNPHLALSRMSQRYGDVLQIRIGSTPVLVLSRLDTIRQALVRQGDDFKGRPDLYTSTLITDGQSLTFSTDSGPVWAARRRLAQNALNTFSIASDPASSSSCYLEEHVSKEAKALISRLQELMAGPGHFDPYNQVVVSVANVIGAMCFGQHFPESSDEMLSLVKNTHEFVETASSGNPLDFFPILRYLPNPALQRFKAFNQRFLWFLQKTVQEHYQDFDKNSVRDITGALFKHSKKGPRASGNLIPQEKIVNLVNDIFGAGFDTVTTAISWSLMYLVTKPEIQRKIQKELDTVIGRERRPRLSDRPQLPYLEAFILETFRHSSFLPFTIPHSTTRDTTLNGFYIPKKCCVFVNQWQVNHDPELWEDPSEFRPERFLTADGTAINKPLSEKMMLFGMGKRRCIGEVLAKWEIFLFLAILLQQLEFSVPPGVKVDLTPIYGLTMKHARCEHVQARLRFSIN

CC[C@H](C)[C@@H]([C@@H](CC(=O)N1CCC[C@H]1[C@H](OC)[C@@H](C)C(=O)N[C@H](C)[C@@H](O)c1ccccc1)OC)N(C)C(=O)[C@@H](NC(=O)[C@H](C(C)C)N(C)C(=O)OCc1ccc(NC(=O)[C@H](CCCNC(N)=O)NC(=O)[C@@H](NC(=O)CCCc2cn(CCCNC(=O)[C@H](Cc3ccc(O)cc3)NC(=O)[C@H](Cc3ccccc3)NC(=O)CCC(=O)NCCCCCC(=O)N(CCCC[C@H](NC(=O)N[C@@H](CCC(=O)O)C(=O)O)C(=O)O)Cc3cccc(Cl)c3)nn2)C(C)C)cc1)C(C)C ({GluureaLys(ε-3-ClBenzyl)-Ahx-Suc}-FY[X1]V[Cit][PABC][NMeV]V[Dil][Dolaproine]-X2)
Activity [1]: Non-Toxic
Activity (Salmonella typhimurium [2]): Non-Toxic
Vd [3]: 0.158 L/kg
Activity [4]: Non-Toxic
Activity [5]: Non-Toxic
Activity (Salmonella typhimurium [6]): Non-Toxic
pIC50 (Cytochrome P450 3A4): 4.95
Activity [7]: Non-Toxic
Drug metabolism (Cytochrome P450 2C19): Metabolite_Notdetected
Activity [8]: Toxic
Activity [9]: Toxic
Activity [10]: Non-Toxic
Activity (Salmonella typhimurium [11]): Non-Toxic
Activity [12]: Non-Toxic
Activity [13]: Toxic
Activity (Salmonella typhimurium [14]): Non-Toxic
Activity [15]: Non-Toxic
Activity [16]: Non-Toxic
Activity [17]: Non-Toxic
Activity [18]: Non-Toxic
Activity [19]: Non-Toxic
Activity (Salmonella typhimurium [20]): Non-Toxic
Activity [21]: Toxic
Activity [22]: Non-Toxic
Activity [23]: Non-Toxic
Activity [24]: Toxic
Stability [25]: Unstable
Activity (Salmonella typhimurium [26]): Non-Toxic
half-life [27]: 0.457 h
CC50 (CWR22R): 0.029 µM
Stability [28]: Stable
Activity [29]: Non-Toxic
half-life [30]: 4.6 h
Activity [31]: Non-Toxic
Activity [32]: Non-Toxic
Activity (Salmonella typhimurium [33]): Non-Toxic
AUC(0-t) [34]: 31000 ng·h/mL
Activity [35]: Non-Toxic
Activity [36]: Non-Toxic
Drug metabolism (Cytochrome P450 1A2): Metabolite_Notdetected
